Among the data in article PMC8039944, “Characterization of drug-induced human mitochondrial ADP/ATP carrier inhibition” (Theranostics, 2021) are Km, IC50 and inhibition values, retold here.

The target in assay [1] is T1, human mitochondrial ADP/ATP carrier isoform 1 (hAAC1) (Homo sapiens, UniProt P12235).
T1 sequence (P12235 11-298): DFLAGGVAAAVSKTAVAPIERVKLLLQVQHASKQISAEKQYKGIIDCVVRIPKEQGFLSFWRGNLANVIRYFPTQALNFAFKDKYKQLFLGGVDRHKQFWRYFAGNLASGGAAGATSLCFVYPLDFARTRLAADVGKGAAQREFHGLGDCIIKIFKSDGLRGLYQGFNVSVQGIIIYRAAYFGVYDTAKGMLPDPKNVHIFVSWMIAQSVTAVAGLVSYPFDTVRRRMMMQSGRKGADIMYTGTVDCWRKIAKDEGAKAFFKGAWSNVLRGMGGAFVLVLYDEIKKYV
Set-up: gene SLC25A4.

For assay [2], the target named is T1, human mitochondrial ADP/ATP carrier isoform 1 (hAAC1). The assay can be described thus: […]-ATP uptake in proteoliposomes, dose-response. The class given is biochemical. Set-up: gene SLC25A4; hAAC1Δ1-10, residues 11-298.
For assay [3] the target is unchanged. The assay can be described thus: […]-ATP uptake in proteoliposomes, inhibition at […]. Particulars: read-out: % inhibition at 100 μM. Set-up: gene SLC25A4; hAAC1Δ1-10, residues 11-298. The class given is biochemical.
For assay [4] the target is unchanged. The assay is described as follows: […]-ATP uptake in proteoliposomes, dose-response; CPM thermal shift (+[…] °C at […]). The format is biochemical. Set-up: gene SLC25A4; hAAC1Δ1-10, residues 11-298.

In general, Km refers to the concentration of substrate that gives half-maximal velocity. For the molecule `Nc1ncnc2c1ncn2[C@@H]1O[C@H](COP(=O)(O)OP(=O)(O)OP(=O)(O)O)[C@@H](O)[C@H]1O` [ATP], the Km in assay [1] came to 3.2 µM. By IC50 is commonly meant the concentration at which inhibition is half-maximal. For the molecule `O=C(O)c1ccc2cc(-c3ccc(O)c(C45CC6CC(CC(C6)C4)C5)c3)ccc2c1` [CD-437], the IC50 in assay [2] (read-out: IC50) was 20 µM. A word on the inhibition: it is the share of the control response that was lost under treatment. `O=C1c2c(O)cccc2Cc2cccc(O)c21` [anthralin]: in assay [3], the inhibition at 100 µM was 77%. Regarding `O=C(O)C[C@@H]1C(=O)O[C@H]2[C@H](OC(=O)c3cc(O)c(O)c(O)c3)[C@@H](OC(=O)c3cc(O)c(O)c4c3[C@H]1[C@H](O)C(=O)O4)[C@H](OC(=O)c1cc(O)c(O)c(O)c1)O[C@@H]2COC(=O)c1cc(O)c(O)c(O)c1` [chebulinic acid], the midpoint of inhibition in assay [2], the IC50, lay at 6.5 µM. Take `Cc1ccc(C(=O)Nc2ccc(S(=O)(=O)O)c3cc(S(=O)(=O)O)cc(S(=O)(=O)O)c23)cc1NC(=O)c1cccc(NC(=O)Nc2cccc(C(=O)Nc3cc(C(=O)Nc4ccc(S(=O)(=O)O)c5cc(S(=O)(=O)O)cc(S(=O)(=O)O)c45)ccc3C)c2)c1` [suramin]: the IC50 in assay [4] was found to be 2.4 µM. With `CC1=C(/C=C/C(C)=C/C=C/C(C)=C/C(=O)O)C(C)(C)CCC1` [tretinoin], the inhibition at 100 µM in assay [3] is 59%.
